The values that follow come from PMC9064588 (RSC Advances, 2019).

This assay deals with α-glucosidase (Maltase EC 3.2.1.20). The assay can be described thus: PNPG hydrolysis enzyme inhibition assay, absorbance at […] nm. The assay is classed as biochemical.

Molecules are shown by their SMILES.

In general, IC50 refers to the concentration that inhibits the measured activity by half. Low readings indicate greater potency, high ones weaker potency. The compound `Oc1cc(O)c2c(c1)O[C@@]1(c3ccc(O)c(O)c3)Oc3cc(O)c4c(c3[C@@H]2[C@H]1O)O[C@H](c1ccc(O)c(O)c1)[C@H](O)C4` [PCA2, Procyanidin A2] had an IC50 of 460 ± 10 nM.
